Test results from patent publication US20030073097A1, “TRAF6-regulated IKK activators (TRIKA1 and TRIKA2) and their use as anti-inflammatory targets” (priority 2001, published 2003).
Peptide text beside a SMILES is read from it. * marks the point of attachment. Cbz = O=C(OCc1ccccc1)*

How the values were obtained:
proteasome = conditions: 20 μM; Chen et al., 1995; cited from earlier work
IKK = target: T1, IKK (Homo sapiens, UniProt O14920+O15111); experiment: In vitro assay for IKK activation by TRAF6 (IκBα phosphorylation); assay type: biochemical; conditions: inhibitor at 20 μM added to the assay
T1 construct: IKK complex was purified form HeLa cells or from calf thymus using ATP-Sepharose; endogenous in cells
T1 sequence (O14920 whole entry): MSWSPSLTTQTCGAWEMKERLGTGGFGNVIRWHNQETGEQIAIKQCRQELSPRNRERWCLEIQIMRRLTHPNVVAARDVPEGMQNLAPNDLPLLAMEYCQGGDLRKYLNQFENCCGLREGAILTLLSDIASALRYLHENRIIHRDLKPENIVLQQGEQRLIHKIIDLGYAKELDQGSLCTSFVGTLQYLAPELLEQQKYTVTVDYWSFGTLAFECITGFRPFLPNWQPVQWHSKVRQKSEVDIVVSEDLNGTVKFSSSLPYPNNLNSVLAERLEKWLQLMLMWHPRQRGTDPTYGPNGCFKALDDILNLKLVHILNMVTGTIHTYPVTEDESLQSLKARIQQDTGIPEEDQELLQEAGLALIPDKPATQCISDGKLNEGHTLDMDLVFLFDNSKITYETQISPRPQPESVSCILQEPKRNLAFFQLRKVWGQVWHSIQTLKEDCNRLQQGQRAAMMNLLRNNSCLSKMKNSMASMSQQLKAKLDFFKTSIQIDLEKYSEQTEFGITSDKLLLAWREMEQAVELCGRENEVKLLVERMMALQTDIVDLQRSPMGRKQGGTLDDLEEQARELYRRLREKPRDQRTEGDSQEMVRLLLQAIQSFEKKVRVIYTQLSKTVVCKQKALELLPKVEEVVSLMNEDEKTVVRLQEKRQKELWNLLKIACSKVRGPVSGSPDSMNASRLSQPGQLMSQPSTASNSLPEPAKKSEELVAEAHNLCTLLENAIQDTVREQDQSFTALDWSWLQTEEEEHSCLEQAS
T1 sequence (O15111 whole entry): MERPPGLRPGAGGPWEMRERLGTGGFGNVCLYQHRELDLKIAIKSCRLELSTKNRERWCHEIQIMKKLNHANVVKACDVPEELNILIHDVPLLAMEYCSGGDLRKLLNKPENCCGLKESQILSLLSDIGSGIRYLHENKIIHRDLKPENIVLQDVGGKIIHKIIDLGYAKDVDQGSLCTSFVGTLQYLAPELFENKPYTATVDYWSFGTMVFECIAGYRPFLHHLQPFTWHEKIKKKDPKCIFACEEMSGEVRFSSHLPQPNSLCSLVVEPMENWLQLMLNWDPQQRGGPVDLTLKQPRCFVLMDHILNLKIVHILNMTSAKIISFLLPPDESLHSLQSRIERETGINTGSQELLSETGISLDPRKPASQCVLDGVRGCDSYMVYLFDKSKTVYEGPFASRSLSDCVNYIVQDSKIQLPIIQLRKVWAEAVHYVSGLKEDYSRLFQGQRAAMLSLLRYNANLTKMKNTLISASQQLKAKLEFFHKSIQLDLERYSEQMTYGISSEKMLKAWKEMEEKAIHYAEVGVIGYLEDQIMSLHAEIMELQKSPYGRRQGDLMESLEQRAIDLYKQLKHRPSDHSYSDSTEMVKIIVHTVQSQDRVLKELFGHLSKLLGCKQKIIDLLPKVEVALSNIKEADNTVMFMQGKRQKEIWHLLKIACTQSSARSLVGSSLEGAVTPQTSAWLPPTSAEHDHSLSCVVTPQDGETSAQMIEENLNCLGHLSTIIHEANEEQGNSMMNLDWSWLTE
T1 sequence (Q9Y6K9 whole entry partner): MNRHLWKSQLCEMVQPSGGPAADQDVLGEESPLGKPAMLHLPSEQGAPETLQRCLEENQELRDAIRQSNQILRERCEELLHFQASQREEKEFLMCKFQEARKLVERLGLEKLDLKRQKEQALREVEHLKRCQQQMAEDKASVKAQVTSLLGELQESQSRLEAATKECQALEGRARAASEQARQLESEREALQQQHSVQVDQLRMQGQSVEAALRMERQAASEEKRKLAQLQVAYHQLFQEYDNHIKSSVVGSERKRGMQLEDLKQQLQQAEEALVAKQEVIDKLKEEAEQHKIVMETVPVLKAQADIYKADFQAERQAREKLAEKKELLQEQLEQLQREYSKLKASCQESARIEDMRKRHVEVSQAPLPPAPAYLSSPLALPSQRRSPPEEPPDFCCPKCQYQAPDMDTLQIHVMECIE
Experimental: In vitro Assay for IKK Activation. To detect endogenous IKK activation, cell extracts (5 mg/ml) were incubated with TRAF6 (or, T6RZC, 0.1 μM) together with an ATP regenerating buffer (Chen et al., 1995). After incubation at 30° C. for 1 hour, the reaction was analyzed by immunoblotting with a phospho-IκBα specific antibody. To identify intermediary factors involved in TRAF6-mediated IKK activation, the inventors used a reconstitution assay by adding ^35S-IκBα (0.5 μl) and purified IKK complex (5 nM) to a 5 μl reaction mixture that also contains ATP (2 mM), TRAF6 (0.1 μM), and column fractions (0.5-1 μl). In most IKK activation assays, E1 (0.1 μM) and Ub (0.1 mM) were also added to enhance the reaction, although they can be supplied from the wheat germ extracts used for in vitro translation of IκBα. As an assay for purification of TRIKA1, reaction mixtures also contain 0.5 μg TRIKA2/FrIIa, a fraction eluted from Q-Sepharose with 0.2M NaCl. The reaction was carried out at 30° C. for 1 hour, and then analyzed using a PhosphorImager (Molecular Dynamics) following SDS-PAGE.

T6RZC stable 293 cells = experiment: Coumermycin A-induced TRAF6-gyrase B (T6RZC) dimerization in stable 293 cells, IκBα degradation; assay type: cell-based, human; conditions: 293 cells stably expressing T6RZC; coumermycin A 1 μM
Experimental: Generation of TRAF6-gyraseB stable cell lines. The TRAF6-gyrase B fusion was constructed by replacing the C-terminal TRAF domain of TRAF6 (residues 1-358) with the N-terminal fragment of bacterial gyrase B (T6RZC). Another chimeric construct contained residues 1-291 of TRAF6 (T6RZ). These chimeras were cloned into the mammalian expression vector pEF-IRES-P (Deng et al., 2000). Following transfection of DNA into 293 cells, stable clones were selected in puromycin (1 μg/ml). To induce the dimerization of TRAF6 and subsequent activation of the JNK and IKK pathways, cells were treated with coumermycin A (1 μM) for different lengths of time, and then cell extracts prepared for further analysis.

| SMILES | Block of proteasomal activity (proteasome) | Inhibition of IKK activation by TRAF6 (IKK) | Degradation of IκBα upon addition of the dimerizer (T6RZC stable 293 cells) |
| --- | --- | --- | --- |
| CC(C)C[C@@H](C=O)NC(=O)[C@H](CC(C)C)NC(=O)[C@H](CC(C)C)NC(=O)OCc1ccccc1 [MG132] (Cbz-Leu-Leu-Leu-aldehyde) | completely block | No inhibition | – |
| CO[C@H]1[C@H](OC(=O)c2ccc(C)[nH]2)[C@H](O)[C@@H](Oc2ccc3c(O)c(NC(=O)c4c[nH]c(C(=O)Nc5c(O)c6ccc(O[C@H]7OC(C)(C)[C@@H](OC)[C@H](OC(=O)c8ccc(C)[nH]8)[C@@H]7O)c(C)c6oc5=O)c4C)c(=O)oc3c2C)OC1(C)C [coumermycin A] | – | – | rapidly degraded |
| CC(=O)N[C@@H](CSC(=O)[C@]1([C@@H](O)C(C)C)NC(=O)[C@H](C)[C@@H]1O)C(=O)O [lactacystin] | completely block | No inhibition | – |
